ChEMBL document CHEMBL1151449, “In vitro activity of DC-159a, a new broad-spectrum fluoroquinolone, compared with that of other agents against drug-susceptible and -resistant pneumococci” (2008)
≈ marks a conversion by molar mass, not a printed value.

Key:
Format in all cases: functional
Streptococcus pneumoniae [1] = assay: Antibacterial activity against Streptococcus pneumoniae HMC 1077 harboring S81Y and S79F mutation in quinolone-resistant determining regions of GyrA and ParC genes respectively by agar dilution method
Streptococcus pneumoniae [2] = assay: Antibacterial activity against Streptococcus pneumoniae HMC 1541 harboring S81Y mutation in quinolone-resistant determining regions of GyrA gene, S79F, K137N mutation in QRDR of ParC gene and I460V mutation in QRDR of ParE gene by agar dilution method
Streptococcus pneumoniae [3] = assay: Antibacterial activity against Streptococcus pneumoniae HMC 1059 harboring S81F mutation in quinolone-resistant determining regions of GyrA gene, S79F, K137N mutation in QRDR of ParC gene and I460N mutation in QRDR of ParE gene by agar dilution method
Streptococcus pneumoniae [4] = assay: Antibacterial activity against Streptococcus pneumoniae HMC 5041 harboring S81F and S79F mutation in quinolone-resistant determining regions of GyrA and ParC genes respectively by agar dilution method
Streptococcus pneumoniae [5] = assay: Antibacterial activity against Streptococcus pneumoniae HMC 1068 harboring E85K mutation in quinolone-resistant determining regions of GyrA gene, S79Y, K137N mutation in QRDR of ParC gene and I460V mutation in QRDR of ParE gene showing efflux to ciprofloxacin, levofloxacin by agar dilution method
Streptococcus pneumoniae [6] = assay: Antibacterial activity against Streptococcus pneumoniae HMC 2536 harboring S81Y mutation in quinolone-resistant determining regions of GyrA gene, S79F, K137N mutation in QRDR of ParC gene and I460V mutation in QRDR of ParE gene by agar dilution method
Streptococcus pneumoniae [7] = assay: Antibacterial activity against quinolone-resistant Streptococcus pneumoniae […] by agar dilution method
Streptococcus pneumoniae [8] = assay: Antibacterial activity against Streptococcus pneumoniae HMC 1078 harboring S81F mutation in quinolone-resistant determining regions of GyrA gene, S79F mutation in QRDR of ParC gene and I460V mutation in QRDR of ParE gene by agar dilution method
Streptococcus pneumoniae [9] = assay: Antibacterial activity against Streptococcus pneumoniae HMC 1060 harboring S81F mutation in quinolone-resistant determining regions of GyrA gene, S79F, K137N mutation in QRDR of ParC gene and I460V mutation in QRDR of ParE gene by agar dilution method
Streptococcus pneumoniae [10] = assay: Antibacterial activity against Streptococcus pneumoniae HMC 1062 harboring S81F mutation in quinolone-resistant determining regions of GyrA gene, S79F mutation in QRDR of ParC gene and I460V mutation in QRDR of ParE gene by agar dilution method
Streptococcus pneumoniae [11] = assay: Antibacterial activity against Streptococcus pneumoniae HMC 1072 harboring S81F mutation in quinolone-resistant determining regions of GyrA gene, S79Y mutation in QRDR of ParC gene and I460V mutation in QRDR of ParE gene by agar dilution method
Streptococcus pneumoniae [12] = assay: Antibacterial activity against Streptococcus pneumoniae HMC 1055 harboring S81F mutation in quinolone-resistant determining regions of GyrA gene, S79F, K137N mutation in QRDR of ParC gene and I460V mutation in QRDR of ParE gene by agar dilution method
Streptococcus pneumoniae [13] = assay: Antibacterial activity against Streptococcus pneumoniae HMC 1156 harboring S81F and S79F mutation in quinolone-resistant determining regions of GyrA and ParC genes respectively showing efflux to ciprofloxacin, gemifloxacin by agar dilution method
Streptococcus pneumoniae [14] = assay: Antibacterial activity against Streptococcus pneumoniae HMC 1139 harboring S81F mutation in quinolone-resistant determining regions of GyrA gene, S79F, K137N mutation in QRDR of ParC gene and I460V mutation in QRDR of ParE gene by agar dilution method
Streptococcus pneumoniae [15] = assay: Antibacterial activity against Streptococcus pneumoniae HMC 1058 harboring S79F, K137N mutation in quinolone-resistant determining regions of ParC gene and 460V mutation in QRDR of ParE gene by agar dilution method
Streptococcus pneumoniae [16] = assay: Antibacterial activity against Streptococcus pneumoniae HMC 1150 harboring S81C mutation in quinolone-resistant determining regions of GyrA gene, S79F mutation in QRDR of ParC gene and I460V mutation in QRDR of ParE gene by agar dilution method
Streptococcus pneumoniae [17] = assay: Antibacterial activity against Streptococcus pneumoniae HMC 1071 harboring S81F mutation in quinolone-resistant determining regions of GyrA gene and S79F, K137N mutation in QRDR of ParC gene by agar dilution method
Streptococcus pneumoniae [18] = assay: Antibacterial activity against Streptococcus pneumoniae HMC 1147 harboring S81F mutation in quinolone-resistant determining regions of GyrA gene, S79F mutation in QRDR of ParC gene and I460V mutation in QRDR of ParE gene showing efflux to gemifloxacin by agar dilution method
Streptococcus pneumoniae [19] = assay: Antibacterial activity against Streptococcus pneumoniae HMC 1070 harboring S81F mutation in quinolone-resistant determining regions of GyrA gene, D83N mutation in QRDR of ParC gene and I460V mutation in QRDR of ParE gene by agar dilution method
Streptococcus pneumoniae [20] = assay: Antibacterial activity against Streptococcus pneumoniae HMC 1146 harboring S81F mutation in quinolone-resistant determining regions of GyrA gene, and D435N mutation in QRDR of ParE gene by agar dilution method
Streptococcus pneumoniae [21] = assay: Antibacterial activity against Streptococcus pneumoniae HMC 1151 harboring D83N, K137N mutation in quinolone-resistant determining regions of ParC gene and I460V mutation in QRDR of ParE gene showing efflux to ciprofloxacin, gemifloxacin by agar dilution method
Streptococcus pneumoniae [22] = assay: Antibacterial activity against Streptococcus pneumoniae HMC 1149 harboring S81F and S79Y mutation in quinolone-resistant determining regions of GyrA and ParC genes respectively showing efflux to ciprofloxacin, gemifloxacin by agar dilution method
Streptococcus pneumoniae [23] = assay: Antibacterial activity against Streptococcus pneumoniae HMC 1073 harboring S81F mutation in quinolone-resistant determining regions of GyrA gene, and I460V mutation in QRDR of ParE gene by agar dilution method
Streptococcus pneumoniae [24] = assay: Antibacterial activity against Streptococcus pneumoniae HMC 2527 harboring S81Y mutation in quinolone-resistant determining regions of GyrA gene, S79F, K137N mutation in QRDR of ParC gene and I460V mutation in QRDR of ParE gene by agar dilution method
Streptococcus pneumoniae [25] = assay: Antibacterial activity against Streptococcus pneumoniae HMC 2538 harboring S81Y mutation in quinolone-resistant determining regions of GyrA gene, S79F, K137N mutation in QRDR of ParC gene and I460V mutation in QRDR of ParE gene showing efflux to ciprofloxacin, levofloxacin, gatifloxacin by agar dilution method
Streptococcus pneumoniae [26] = assay: Antibacterial activity against Streptococcus pneumoniae HMC 1076 harboring S81F mutation in quinolone-resistant determining regions of GyrA gene, D83N mutation in QRDR of ParC gene and I460V mutation in QRDR of ParE gene by agar dilution method
Streptococcus pneumoniae [27] = assay: Antibacterial activity against Streptococcus pneumoniae HMC 1074 harboring S81F mutation in quinolone-resistant determining regions of GyrA gene, S79F mutation in QRDR of ParC gene and I460V mutation in QRDR of ParE gene by agar dilution method
Streptococcus pneumoniae [28] = assay: Antibacterial activity against Streptococcus pneumoniae HMC 1066 harboring S81F mutation in quinolone-resistant determining regions of GyrA gene, S79F mutation in QRDR of ParC gene and I460V mutation in QRDR of ParE gene by agar dilution method
Streptococcus pneumoniae [29] = assay: Antibacterial activity against Streptococcus pneumoniae HMC 4026 harboring S81Y mutation in quinolone-resistant determining regions of GyrA gene, S79F, K137N mutation in QRDR of ParC gene and I460V mutation in QRDR of ParE gene by agar dilution method
Streptococcus pneumoniae [30] = assay: Antibacterial activity against penicillin-resistant Streptococcus pneumoniae […] by agar dilution method
Streptococcus pneumoniae [31] = assay: Antibacterial activity against azithromycin-susceptible Streptococcus pneumoniae ATCC 49619 by agar dilution method
Streptococcus pneumoniae [32] = assay: Antibacterial activity against penicillin-susceptible Streptococcus pneumoniae ATCC 49619 by agar dilution method
Streptococcus pneumoniae [33] = assay: Antibacterial activity against penicillin-intermediate Streptococcus pneumoniae […] by agar dilution method
Streptococcus pneumoniae [34] = assay: Antibacterial activity against quinolone-susceptible Streptococcus pneumoniae ATCC 49619 by agar dilution method
Streptococcus pneumoniae [35] = assay: Antibacterial activity against azithromycin-resistant Streptococcus pneumoniae […] by agar dilution method

O=C(O)c1cn(C2CC2)c2cc(N3CCNCC3)c(F)cc2c1=O [CIPROFLOXACIN]
MIC (Streptococcus pneumoniae [1]): > 32 µg/mL
MIC (Streptococcus pneumoniae [2]): 16 µg/mL (≈ 48.3 µM)
MIC (Streptococcus pneumoniae [3]): 32 µg/mL (≈ 96.6 µM)
MIC (Streptococcus pneumoniae [4]): 16 µg/mL (≈ 48.3 µM)
MIC (Streptococcus pneumoniae [5]): 32 µg/mL (≈ 96.6 µM)
MIC (Streptococcus pneumoniae [6]): 16 µg/mL (≈ 48.3 µM)
MIC50 (Streptococcus pneumoniae [7]): 16 µg/mL (≈ 48.3 µM)
MIC90 (Streptococcus pneumoniae [7]): > 32 µg/mL
MIC (Streptococcus pneumoniae [8]): > 32 µg/mL
MIC (Streptococcus pneumoniae [9]): 16 µg/mL (≈ 48.3 µM)
MIC (Streptococcus pneumoniae [10]): > 32 µg/mL
MIC (Streptococcus pneumoniae [11]): > 32 µg/mL
MIC (Streptococcus pneumoniae [12]): 32 µg/mL (≈ 96.6 µM)
MIC (Streptococcus pneumoniae [13]): > 32 µg/mL
MIC (Streptococcus pneumoniae [14]): 32 µg/mL (≈ 96.6 µM)
MIC (Streptococcus pneumoniae [15]): 16 µg/mL (≈ 48.3 µM)
MIC (Streptococcus pneumoniae [16]): 16 µg/mL (≈ 48.3 µM)
MIC (Streptococcus pneumoniae [17]): 32 µg/mL (≈ 96.6 µM)
MIC (Streptococcus pneumoniae [18]): 32 µg/mL (≈ 96.6 µM)
MIC (Streptococcus pneumoniae [19]): > 32 µg/mL
MIC (Streptococcus pneumoniae [20]): 32 µg/mL (≈ 96.6 µM)
MIC (Streptococcus pneumoniae [21]): 16 µg/mL (≈ 48.3 µM)
MIC (Streptococcus pneumoniae [22]): 16 µg/mL (≈ 48.3 µM)
MIC (Streptococcus pneumoniae [23]): 8 µg/mL (≈ 24.1 µM)
MIC (Streptococcus pneumoniae [24]): 16 µg/mL (≈ 48.3 µM)
MIC (Streptococcus pneumoniae [25]): 16 µg/mL (≈ 48.3 µM)
MIC (Streptococcus pneumoniae [26]): 16 µg/mL (≈ 48.3 µM)
MIC (Streptococcus pneumoniae [27]): 16 µg/mL (≈ 48.3 µM)
MIC (Streptococcus pneumoniae [28]): 16 µg/mL (≈ 48.3 µM)
MIC (Streptococcus pneumoniae [29]): > 32 µg/mL

CC1(C)S[C@@H]2[C@H](NC(=O)Cc3ccccc3)C(=O)N2[C@H]1C(=O)O [PENICILLIN G]
MIC50 (Streptococcus pneumoniae [30]): 2 µg/mL (≈ 5.98 µM)
MIC90 (Streptococcus pneumoniae [30]): 4 µg/mL (≈ 12 µM)
MIC50 (Streptococcus pneumoniae [7]): 0.5 µg/mL (≈ 1.5 µM)
MIC90 (Streptococcus pneumoniae [7]): 4 µg/mL (≈ 12 µM)
MIC50 (Streptococcus pneumoniae [31]): 0.25 µg/mL (≈ 0.748 µM)
MIC90 (Streptococcus pneumoniae [31]): 2 µg/mL (≈ 5.98 µM)
MIC50 (Streptococcus pneumoniae [32]): 0.03 µg/mL (≈ 0.0897 µM)
MIC90 (Streptococcus pneumoniae [32]): 0.06 µg/mL (≈ 0.179 µM)
MIC50 (Streptococcus pneumoniae [33]): 0.25 µg/mL (≈ 0.748 µM)
MIC90 (Streptococcus pneumoniae [33]): 1 µg/mL (≈ 2.99 µM)
MIC50 (Streptococcus pneumoniae [34]): 0.25 µg/mL (≈ 0.748 µM)
MIC90 (Streptococcus pneumoniae [34]): 4 µg/mL (≈ 12 µM)
MIC50 (Streptococcus pneumoniae [35]): 0.5 µg/mL (≈ 1.5 µM)
MIC90 (Streptococcus pneumoniae [35]): 4 µg/mL (≈ 12 µM)
